In general, Ki refers to the dissociation constant of the complex between target and ligand, obtained from inhibition or displacement.

The source of these data is patent US20120101132A1, “New Substituted Oxindole Derivative” (priority 2008, published 2012).

The test concerns the target T1, recombinant human GSK3β (Homo sapiens, UniProt P49841).
T1 construct: purchased Dundee University, UK
In words: GSK3β Scintillation Proximity Assay (ATP competition). The format is biochemical. The settings on record: ATP 1 μM; Km of ATP for GSK3β 20 μM; peptide substrate 1 μM. The protocol:
Determination of ATP Competition in Scintillation Proximity GSK3β Assay.
GSK3β Scintillation Proximity Assay.
The competition experiments were carried out in duplicate with 10 different concentrations of the inhibitors in clear-bottom microtiter plates (Wallac, Finland). A biotinylated peptide substrate, Biotin-Ala-Ala-Glu-Glu-Leu-Asp-Ser-Arg-Ala-Gly-Ser(PO3H2)-Pro-Gln-Leu (AstraZeneca, Lund), was added at a final concentration of 1 μM in an assay buffer containing 1 mU recombinant human GSK3β (Dundee University, UK), 12 mM morpholinepropanesulfonic acid (MOPS), pH 7.0, 0.3 mM EDTA, 0.01% β-mercaptorethanol, 0.004% Brij 35 (a […] detergent), 0.5% glycerol and 0.5 μg BSA/25 μl. The reaction was initiated by the addition of 0.04 μCi [γ-^33P]ATP (Amersham, UK) and unlabelled ATP at a final concentration of 1 μM and assay volume of 25 μl. After incubation for 20 minutes at room temperature, each reaction was terminated by the addition of 25 μl stop solution containing 5 mM EDTA, 50 μM ATP, 0.1% Triton X-100 and 0.25 mg streptavidin coated Scintillation Proximity Assay (SPA) beads (Amersham, UK). After 6 hours the radioactivity was determined in a liquid scintillation counter (1450 MicroBeta Trilux, Wallac). The inhibition curves were analysed by non-linear regression using GraphPad Prism, USA. […]
(In a scintillation proximity assay essentially only radioactivity close to the scintillant gives light.)

T1 sequence (P49841 whole entry): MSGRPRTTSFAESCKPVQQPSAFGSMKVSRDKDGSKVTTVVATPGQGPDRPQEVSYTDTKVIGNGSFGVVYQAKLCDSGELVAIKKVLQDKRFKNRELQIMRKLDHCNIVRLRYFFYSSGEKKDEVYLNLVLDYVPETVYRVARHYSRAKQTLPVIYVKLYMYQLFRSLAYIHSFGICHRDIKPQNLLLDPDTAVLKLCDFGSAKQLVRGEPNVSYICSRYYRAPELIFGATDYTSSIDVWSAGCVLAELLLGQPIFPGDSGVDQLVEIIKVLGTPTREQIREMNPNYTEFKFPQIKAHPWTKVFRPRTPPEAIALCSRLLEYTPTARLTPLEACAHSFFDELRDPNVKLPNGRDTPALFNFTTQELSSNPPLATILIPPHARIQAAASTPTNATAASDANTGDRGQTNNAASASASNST

Take `N#Cc1ccc2[nH]c(O)c(-c3ccc(C(=O)O)cn3)c2c1` [compound of formula (I), 6-(5-cyano-2-hydroxy-1H-indol-3-yl)pyridine-3-carboxylic acid]: the Ki is 32 nM.
